Data from patent US11198715B2, “Selective Bfl-1 peptides” (MASSACHUSETTS INSTITUTE OF TECHNOLOGY, priority 2016, dated 2021).

Legend:
Bfl-1 = target: T1, Bfl-1 (Homo sapiens, UniProt Q16548); assay: Competition fluorescence polarization (anisotropy) binding assay with fluoresceinated Bim; conditions: for selective binding to Bfl-1 over other Bcl-2 family proteins: Ki from competition assays with fluoresceinated Bim; for affinity for Bfl-1 relative to PUMA / specificity for Bfl-1 relative to PUMA: inhibition constants, 23-residue peptides (FIG. 2I)
T1 sequence (Q16548 1-175): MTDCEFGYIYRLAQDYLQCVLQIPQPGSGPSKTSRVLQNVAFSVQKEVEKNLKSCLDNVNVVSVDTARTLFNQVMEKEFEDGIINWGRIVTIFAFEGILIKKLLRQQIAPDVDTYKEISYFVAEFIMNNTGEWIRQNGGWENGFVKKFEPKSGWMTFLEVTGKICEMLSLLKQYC
Procedure: Fluorescence polarization assays were performed in order to measure the binding abilities of the peptide constructs. Competition fluorescence polarization experiments were performed by titrating 10-0 μM of unlabeled peptide into 50 nM receptor with […] fluorecinated Bim (fluorescein-[…]) in FP buffer (25 mM Tris pH 7.8, 50 mM NaCl, 1 mM EDTA, 0.001% v/v Triton-X, 5% DMSO). C-myc-tagged receptors were used for all Bcl-2 homologs. Plates were mixed at room temperature for 3 h. Experiments were done in triplicate.
Ki values were obtained from the competition assays with fluoresceinated Bim peptide.

[1] = test system: BCR-ABL-expressing B-ALL cell lines engineered to depend on Bcl-2, Bcl-xL, Mcl-1 or Bfl-1; assay: Whole-cell BH3 profiling (JC-1 mitochondrial depolarization, MOMP); assay type: cell-based; parameters: cross reactivity in non-Bfl-1 dependent lines: dose or concentration left out as unconfirmed; conditions: JC-1 readout; for mitochondrial depolarization in cell lines dependent on Mcl-1, Bcl-2, Bcl-xL or Bfl-1: FS peptides at 100 nM
Procedure: A whole-cell BH3 profiling assay was used to test the specificity of the peptide constructs in several cell lines with known dependencies on anti-apoptotic proteins, including Bcl-2, Mcl-1, Bcl-xL, or Bfl-1. The creation and characterization of the BCR-ABL-expressing B-lineage acute lymphoblastic leukemia suspension cell lines with engineered dependencies on human versions of anti-apoptotic genes is detailed in Koss et al., Oncotarget, 7:11500-11511, 2016. Cells were grown in RPMI (Life Technologies, Carlsbad, Calif.) with 10% fetal bovine serum, 2 mM L-glutamine, 10 mL/L 100× Pen/Strep (Life Technologies #15140122), 25 mM HEPES and 10 mL/L 100×NEAA (Life Technologies, 11140050). The adherent cell lines PC-3 (RRID: CVCL_0035) and SF295 (RRID: CVCL_1690) are from the NCI60 panel (Lorenzi et al., 2009) and were grown in RPMI (Life Technologies) with 10% fetal bovine serum, 2 mM L-glutamine and 10 mL/L 100× Pen/Strep (Life Technologies #15140122). Cell line identities were confirmed by STR profiling. The Lookout Mycoplasma PCR detection kit (Sigma) was used to detect mycoplasma infection. Mycoplasma was only detected in the PC-3 cell line, and internal controls were used to account for this phenotype.
Peptides were titrated by serial dilution in MEB buffer (150 mM Mannitol, 10 mM HEPES-KOH pH 7.5, 50 mM KCl, 0.02 mM EGTA, 0.02 mM EDTA, 0.1% BSA and 5 mM Succinate) containing 20 […], […] and 10 mM 2-mercaptoethanol in 384-well plates. Controls for no depolarization (1% DMSO) and complete depolarization with the mitochondrial oxidative phosphorylation uncoupler FCCP ([…]) were included for data normalization. Cells were suspended at 1.67×10^6 cells/mL in MEB. […] was added to each well containing […] of treatment solution. Fluorescence emission was measured every 5 min for 3 hours at […] with 525 nm excitation on a Tecan Safire2. To produce percent depolarization, the area under the resultant curve was calculated and normalized to the assay controls. Peptide titration curves were fit to sigmoidal dose-response curves using Graphpad PRISM seven to obtain EC50 values.
As depicted in FIG. 9A, in this assay, permeabilized cells were contacted with increasing doses of the BH3 peptides, and mitochondrial outer membrane permeabilization (MOMP) was monitored using a voltage-sensitive dye (JC-1). The apoptotic sensitivity of BCR-ABL-expressing B-lineage acute lymphoblastic leukemia (B-ALL) cell lines engineered to depend on Bcl-2, Bcl-xL, Mcl-1 or Bfl-1 overexpression for survival.

Bcl-xL = assay: Ki (nM) | Bcl-xL
[2] = test system: BCR-ABL-expressing B-ALL cell lines engineered to depend on Bcl-2, Bcl-xL, Mcl-1 or Bfl-1; assay: iBH3 profiling, cytochrome c release; assay type: cell-based; parameters: cross reactivity in non-Bfl-1 dependent lines: dose or concentration left out as unconfirmed
Procedure: As an additional test for on-pathway activity, cytochrome c release was measured in the same engineered cell lines in response to peptide treatment, using iBH3 profiling (see Ryan et al., Biol. Chem., 397:671-678, 2016). Cells were suspended in MEB buffer (150 mM mannitol, 50 mM KCl, 10 mM HEPES, 5 mM succinic acid, […], 0.1% BSA, final pH 7.4) at 0.5*10^6 cells/mL (adherent lines) or 2*10^6 cells/mL (suspension lines). Cell suspension was added to a 384 non-binding well plate ([…]) containing peptides at 2× final concentration in MEB with […]. Plates were incubated at 25° C. for 1 hour. To terminate exposure, […] in PBS was added to each well, plates were incubated for 10 minutes before addition of […] (1.7 M Tris, 1.25 M glycine, pH 9.1) for 5 min. […] The median fluorescence of the cytochrome c channel of Hoechst positive singlets was recorded by an IntelliCyt iQue Screener Plus. Cytochrome c release was determined by normalizing the median fluorescence intensity (MFI) data to positive control wells (Alamethicin) and negative control wells (DMSO) as follows: Cytochrome release=1−(MFIsample−MFIAlamethicin)/(MFIDMSO−MFIAlamethicin)

Row | Substance | selective binding to Bfl-1 over other Bcl-2 family proteins (Bfl-1) | affinity for Bfl-1 relative to PUMA (Bfl-1) | specificity for Bfl-1 relative to PUMA (Bfl-1) | specificity for Bfl-1 relative to Bcl-xL, Bcl-2, Bcl-w and Mcl-1 (Bfl-1; ratio of Ki values) | mitochondrial depolarization in cell lines dependent on Mcl-1, Bcl-2, Bcl-xL or Bfl-1 [1] | Ki (Bcl-xL) [nM] | cross reactivity in non-Bfl-1 dependent lines [1] | potency of mitochondrial depolarization, comparison [1] | potency in cytochrome c release, comparison [2] | cross reactivity in non-Bfl-1 dependent lines ([2]; cytochrome c release)
1 | Ac-QWVREIAAGLRLAADNVNAQLER-NH2 [FS1] | bound selectivity to Bfl-1 over other Bcl-2 family proteins | reduced affinity for Bfl-1 relative to PUMA | significantly increased specificity | at least 150 fold | promoted depolarization only in Bfl-1 dependent cells | 2720 ± 713 | – | – | – | –
2 | QWIREIAAGLRRFADILNAQVER [FS3] | bound selectivity to Bfl-1 over other Bcl-2 family proteins | reduced affinity for Bfl-1 relative to PUMA | significantly increased specificity | – | promoted depolarization only in Bfl-1 dependent cells | – | significant cross reactivity | more potently than FS1 or FS2 | more potently than FS1 or FS2 | significant cross reactivity
3 | QWVREIAAGLRRAADDVNAQVER [FS2] | bound selectivity to Bfl-1 over other Bcl-2 family proteins | reduced affinity for Bfl-1 relative to PUMA | significantly increased specificity | – | promoted depolarization only in Bfl-1 dependent cells | – | – | – | – | –
